Source: patent publication US6025378A, “Bicyclic heterocyclic compounds” (Bayer Aktiengesellschaft, priority 1995, dated 2000)
Where two headings read alike, the source gives them in different places.

System: ApoB-100-associated lipoproteins released from HepG2 cells
Experiment: Inhibition of the release of ApoB-100-associated lipoproteins from cultured hepatic HepG2 cells (immunoassay for human LDL)
Type: cell-based
Conditions: culture supernatant, absorption at 450 nm inhibited by 50% vs solvent control, read-out: Apo B IC50
Method: 1. Inhibition of the Release of ApoB-100-associated Lipoproteins
The test for detection of the inhibition of the release of ApoB-100-associated lipoproteins from hepatic cells was carried out in vitro with cultured hepatic cells, preferably with cells of the human line HepG2. These cells are cultured under standard conditions in medium for culture of eukaryotic cells, preferably in RPMI 1640 with 10% foetal calf serum. HepG2 cells synthesize and secrete into the culture supernatant ApoB-100-associated lipoprotein particles, which are in principle built up similarly to the VLDL and LDL particles which are to be found in plasma.
These particles can be detected with an immunoassay for human LDL. This immunoassay is carried out with antibodies which have been induced against human LDL in rabbits under standard conditions. The anti-LDL antibodies (rab-anti-LDL-Ab) were purified by affinity chromatography on an immunosorbent with human LDL. These purified rab-anti-LDL-Ab are adsorbed onto the surface of plastic. This adsorption is expediently carried out on the plastic surface of microtiter plates with 96 wells, preferably on MaxiSorp plates. If ApoB-100-associated particles are present in the supernatant of Hep-G2 cells, these can bond to the insolubilized rab-anti-LDL-Ab, and an immune complex bonded to the plastic surface is formed. Non-bonded proteins are removed by washing The immune complex on the plastic source is detected with monoclonal antibodies, which have been induced against human LDL and purified under standard conditions. These antibodies were conjugated with the enzyme peroxidase. Peroxidase converts the colourless substrate TMB into a coloured product in the presence of H2 O2. After acidification of the reaction mixture with H2 SO4, the specific absorption of light is determined at 450 nm, this being a measure of the amount of ApoB-100-associated particles wich had been secreted by the HepG2 cells into the culture supernatant.
The IC50 value indicates the concentration of substance at which the absorption of light is inhibited by 50% compared with the control (solvent control without the substance).

[1] = Homo sapiens, HepG2, HepG2 cells

| SMILES | IC50 [1] | IC50 (HepG2 cells) |
| --- | --- | --- |
| O=C(N[C@@H](CO)c1ccccc1)C(c1ccc(CN2C(=O)c3ccncc3C2=O)cc1)C1CCCCCC1 (some centres unmarked) [Example 63] | 5.9 nM |  |
| CCc1nc2ccccc2c(=O)n1Cc1ccc(C(C(=O)N[C@@H](CO)c2ccccc2)C2CCCC2)cc1 (some centres unmarked) [Example 67] |  | 27.4 nM |
| CCc1nc2ccccc2c(=O)n1Cc1ccc(C(C(=O)N[C@@H](CO)c2ccccc2)C2CCCC2)cc1 (some centres unmarked) [Example 68] |  | 70.6 nM |

The next lines start with the values.

| IC50 [1] | IC50 (HepG2 cells) | SMILES |
| --- | --- | --- |
| 58.8 nM |  | O=C(N[C@@H](CO)c1ccccc1)C(c1ccc(Cn2ncc3ccccc3c2=O)cc1)C1CCCCCC1 (some centres unmarked) [Example 70] |
| 29.4 nM |  | CCCCc1nn(Cc2ccc(C(C(=O)N[C@@H](CO)c3ccccc3)C3CCCC3)cc2)c(=O)c2ccccc12 (some centres unmarked) [Example 73] |
|  | 37.2 nM | O=C(N[C@@H](CO)c1ccccc1)C(c1ccc(Cn2nc(-c3ccc(Cl)cc3)c3ccccc3c2=O)cc1)C1CCCC1 (some centres unmarked) [Example 76] |
|  | 14.9 nM | O=C(N[C@@H](CO)c1ccccc1)C(c1ccc(Cn2nc(-c3ccc(Cl)cc3)c3ccccc3c2=O)cc1)C1CCCC1 (some centres unmarked) [Example 77] |
|  | 279 nM | O=C(N[C@@H](CO)c1ccccc1)C(c1ccc(Cn2nc(-c3ccc(Cl)cc3)c3ccccc3c2=O)cc1)C1CCCC1 (some centres unmarked) [Example 78] |
